System: HBV
Assay: HBsAg levels in serum of AAV/HBV mice (CLIA)
Type: in vivo, C57BL/6 mice
Design: HBsAg levels in serum (Average ± SD): scale not given here
Excerpt: The AAV-HBV mouse model is generated by injecting C57BL/6 mice with recombinant adeno-associated virus harboring a replicable HBV genome (AAV-HBV). The rAAV8-1.3 HBV ayw virus stock was purchased from Beijing FivePlus Molecular Medicine Institute (Beijing, China). The animals (male, aged 4-5 weeks upon arrival) were purchased from SLAC Laboratory Animal Co. Ltd (Shanghai, China), acclimatized in the animal facility for 5-7 days, and then injected with 1×10^11 vector genome of AAV-HBV (diluted in 200 μL of PBS) through the tail vein. Persistence expression of HBV genome can be established after three weeks, with high levels of HBV viral markers including HBV DNA, HBsAg, and HBeAg in mouse serum. With stable HBV viremia and competent immune system of the C57BL/6 mice, the AAV-HBV mouse model was used to evaluate the in vivo anti-HBV efficacy of the compounds. The in-life part of the AAV-HBV study was conducted through contracted service at Covance Pharmaceutical Research and Development (Shanghai) Co. Ltd. (Covance Shanghai) and the post-life analysis using the serum was performed internally at Roche Innovation Center Shanghai (RICS).
Seven days before compound treatment, blood samples were collected for serum preparation (˜15 μL), and based on HBV DNA, HBsAg levels in serum and body weight, the AAV-HBV infected animals were stratified into the different treatment groups.
Saline (Group 01) and anti-HBV ASO of CMP ID NO: 15_1 at 1.5 or 7.5 mg/kg were dosed sub subcutaneously once a week during Day 0-49 on Days 0, 7, 14, 21, 28, 35, 42 and 49. TLR7 agonist of CMP ID NO: VI 100 mg/kg was administered by oral gavage once every other day during Day 0-55 (QOD) or once weekly during Day 0-49 on Days 0, 7, 14, 21, 28, 35, 42 and 49 (QW). The animals were weekly bled via retro-orbital sinus for sample collection throughout the study.
Serum HBsAg levels were determined in the serum of infected AAV-HBV mouse using the HBsAg chemoluminescence immunoassay (CLIA) (Autobio diagnostics Co. Ltd., Zhengzhou, China, Cat. no. CL0310-2), according to the manufacturer's protocol. Briefly, 50 μl of serum was transferred to the antibody coated microtiter plate and 50 μl of enzyme conjugate reagent was added. The plate was incubated for 60 min on a shaker at room temperature before all wells were washed six times with washing buffer using an automatic washer. 25 μl of substrate A and then 25 μl of substrate B was added to each well. The plate was incubated for 10 min at RT before luminescence was measured using an Envision luminescence reader (Perkin Elmer). HBsAg is given in the unit IU/ml; where 1 ng HBsAg=1.14 IU.
To evaluate the combination of the anti-HBV ASO and the TLR7 agonist in an in vivo system, a mouse model of chronic HBV infection was used. In the AAV/HBV mouse model described in the Materials and Method a persistent HBV infection is established resulting in expression of viral markers (HBsAg, HBeAg, HBV DNA) detectable in plasma. The effect on these viral markers upon treatment with the anti-HBV ASO of CMP ID NO: 15_1 (table 2, and FIG. 4) dosed at 1.5 mg/kg or 7.5 mg/kg and the TLR7 agonist of CMP ID NO: VI (table 3) dosed with […] every other day (QOD) or once weekly (QW) in monotherapy or in combination has been evaluated.

## CC[C@H](OC(C)=O)[C@@H]1C[C@@H](O)[C@H](n2c(=O)sc3cnc(N)nc32)O1 [CMP ID NO: VI, [(1S)-1-[(2S,4R,5R)-5-(5-amino-2-oxo-thiazolo[4,5-d]pyrimidin-3-yl)-4-hydroxy-tetrahydrofuran-2-yl]propyl] acetate]
D56, 15_1 7.5 mg/kg weekly, VI 100 mg/kg QW, or combination of both
  HBsAg levels in serum (Average ± SD): 2.13 ± 1.00
D63, 15_1 1.5 mg/kg weekly, VI 100 mg/kg QOD, or combination of both
  HBsAg levels in serum (Average ± SD): 1.61 ± 0.96
D63, 15_1 1.5 mg/kg weekly, VI 100 mg/kg QW, or combination of both
  HBsAg levels in serum (Average ± SD): 2.43 ± 1.14
D63, 15_1 7.5 mg/kg weekly, VI 100 mg/kg QOD, or combination of both
  HBsAg levels in serum (Average ± SD): 1.61 ± 0.96
D63, 15_1 7.5 mg/kg weekly, VI 100 mg/kg QW, or combination of both
  HBsAg levels in serum (Average ± SD): 2.43 ± 1.14
D70, 15_1 1.5 mg/kg weekly, VI 100 mg/kg QOD, or combination of both
  HBsAg levels in serum (Average ± SD): 1.9 ± 1.23
D70, 15_1 1.5 mg/kg weekly, VI 100 mg/kg QW, or combination of both
  HBsAg levels in serum (Average ± SD): 2.48 ± 1.23
D70, 15_1 7.5 mg/kg weekly, VI 100 mg/kg QOD, or combination of both
  HBsAg levels in serum (Average ± SD): 1.90 ± 1.23
D70, 15_1 7.5 mg/kg weekly, VI 100 mg/kg QW, or combination of both
  HBsAg levels in serum (Average ± SD): 2.48 ± 1.23
D77, 15_1 1.5 mg/kg weekly, VI 100 mg/kg QOD, or combination of both
  HBsAg levels in serum (Average ± SD): 1.91 ± 1.18
D77, 15_1 1.5 mg/kg weekly, VI 100 mg/kg QW, or combination of both
  HBsAg levels in serum (Average ± SD): 2.41 ± 1.16
D77, 15_1 7.5 mg/kg weekly, VI 100 mg/kg QOD, or combination of both
  HBsAg levels in serum (Average ± SD): 1.91 ± 1.18
D77, 15_1 7.5 mg/kg weekly, VI 100 mg/kg QW, or combination of both
  HBsAg levels in serum (Average ± SD): 2.41 ± 1.16
D84, 15_1 1.5 mg/kg weekly, VI 100 mg/kg QOD, or combination of both
  HBsAg levels in serum (Average ± SD): 2.25 ± 1.16
D84, 15_1 1.5 mg/kg weekly, VI 100 mg/kg QW, or combination of both
  HBsAg levels in serum (Average ± SD): 2.66 ± 1.15
D84, 15_1 7.5 mg/kg weekly, VI 100 mg/kg QOD, or combination of both
  HBsAg levels in serum (Average ± SD): 2.25 ± 1.16
D84, 15_1 7.5 mg/kg weekly, VI 100 mg/kg QW, or combination of both
  HBsAg levels in serum (Average ± SD): 2.66 ± 1.15
D91, 15_1 1.5 mg/kg weekly, VI 100 mg/kg QOD, or combination of both
  HBsAg levels in serum (Average ± SD): 2.05 ± 1.35
D91, 15_1 1.5 mg/kg weekly, VI 100 mg/kg QW, or combination of both
  HBsAg levels in serum (Average ± SD): 2.66 ± 1.44
D91, 15_1 7.5 mg/kg weekly, VI 100 mg/kg QOD, or combination of both
  HBsAg levels in serum (Average ± SD): 2.05 ± 1.35
D91, 15_1 7.5 mg/kg weekly, VI 100 mg/kg QW, or combination of both
  HBsAg levels in serum (Average ± SD): 2.66 ± 1.44
D98, 15_1 1.5 mg/kg weekly, VI 100 mg/kg QOD, or combination of both
  HBsAg levels in serum (Average ± SD): 2.36 ± 1.26
D98, 15_1 1.5 mg/kg weekly, VI 100 mg/kg QW, or combination of both
  HBsAg levels in serum (Average ± SD): 2.83 ± 1.16
D98, 15_1 7.5 mg/kg weekly, VI 100 mg/kg QOD, or combination of both
  HBsAg levels in serum (Average ± SD): 2.36 ± 1.26
D98, 15_1 7.5 mg/kg weekly, VI 100 mg/kg QW, or combination of both
  HBsAg levels in serum (Average ± SD): 2.83 ± 1.16
D105, 15_1 1.5 mg/kg weekly, VI 100 mg/kg QOD, or combination of both
  HBsAg levels in serum (Average ± SD): 2.41 ± 1.18
D105, 15_1 1.5 mg/kg weekly, VI 100 mg/kg QW, or combination of both
  HBsAg levels in serum (Average ± SD): 2.81 ± 1.1
D105, 15_1 7.5 mg/kg weekly, VI 100 mg/kg QOD, or combination of both
  HBsAg levels in serum (Average ± SD): 2.41 ± 1.18
D105, 15_1 7.5 mg/kg weekly, VI 100 mg/kg QW, or combination of both
  HBsAg levels in serum (Average ± SD): 2.81 ± 1.10
D111, 15_1 1.5 mg/kg weekly, VI 100 mg/kg QOD, or combination of both
  HBsAg levels in serum (Average ± SD): 2.69 ± 1.38
D111, 15_1 1.5 mg/kg weekly, VI 100 mg/kg QW, or combination of both
  HBsAg levels in serum (Average ± SD): 3.1 ± 1.12
D111, 15_1 7.5 mg/kg weekly, VI 100 mg/kg QOD, or combination of both
  HBsAg levels in serum (Average ± SD): 2.69 ± 1.38
D111, 15_1 7.5 mg/kg weekly, VI 100 mg/kg QW, or combination of both
  HBsAg levels in serum (Average ± SD): 3.10 ± 1.12
TLR7 agonist alone, FIG. 10A
  initial rate of reduction in HBsAg: slow initial rate of reduction in HBsAg
TLR7 agonist alone, FIG. 10A (100 mg/kg QOD)
  time of lowest HBsAg: 42 days
TLR7 agonist at any of the doses
  suppression of HBsAg: not capable of suppressing HBsAg to a level below the detection limit

— patent publication US20230123601A1, “PHARMACEUTICAL COMBINATION OF ANTIVIRAL AGENTS TARGETING HBV AND/OR AN IMMUNE MODULATOR FOR TREATMENT OF HBV” (priority 2019, published 2023)
